Values joined by “and” are separate entries in the source; they are usually repeats but may differ in a detail not shown here. Identical values can stand only once.
What was measured:
Format in all cases: functional, Homo sapiens
TERT-RPE1 = experiment: (§1) Here: values are normalized to the negative (DMSO; defined as 0% autophagy induction) and positive (250nM Torin1; mTOR inhibitor; defined as maximal inducer of autophagy = 100%) control compounds and represented as % of autophagy induction. […] The impact of autophagy induction on cells is complex and depends on the affected target. As such, the magnitude of a phenotype may not be equally mirrored in the %-value of autophagy induction and vice versa. The dynamics of the induction may indicate the mode of activation: e.g. activation via phosphorylation or a signaling cascade may occur fast, while activation via transcription factors may take considerably longer. […] Of note, treatment concentrations may be sub-optimal for specific compounds, leading to false negative annotations.; conditions: Culturing Media DMEM/F12 (1:1), 1 % Penicillin/Streptomycin, 10% Fetal bovin serum Add-On: No, Screening Media Control DMEM/F12 (1:1), Screening Media Samples DMEM/F12 (1:1)
U2OS [1] = experiment: as §1; conditions: Culturing Media DMEM, 1 % Penicillin/Streptomycin, 10% Fetal bovin serum Add-On: No, Screening Media Control DMEM, Screening Media Samples DMEM
U2OS [2] = experiment: as §1; conditions: Culturing Media DMEM, 1 % Penicillin/Streptomycin, 10% Fetal bovin serum Add-On: No, Screening Media Control DMEM, Screening Media Samples DMEM; remark: listed apart in the source
[3] = Compound Concentration 0.5 uM, Timepoint 12 hours, 12 h, 0.5 µM
[4] = Compound Concentration 0.5 uM, Timepoint 24 hours, 24 h, 0.5 µM
[5] = Compound Concentration 0.5 uM, Timepoint 36 hours, 36 h, 0.5 µM
[6] = Compound Concentration 0.5 uM, Timepoint 60 hours, 60 h, 0.5 µM
[7] = Compound Concentration 2 uM, Timepoint 24 hours, 24 h, 2 µM
[8] = Compound Concentration 2 uM, Timepoint 36 hours, 36 h, 2 µM
[9] = Compound Concentration 2 uM, Timepoint 60 hours, 60 h, 2 µM
[10] = Compound Concentration 10 uM, Timepoint 12 hours, 12 h, 10 µM
[11] = Compound Concentration 0.5 uM, Timepoint 12 hours
[12] = Compound Concentration 0.5 uM, Timepoint 24 hours
[13] = Compound Concentration 0.5 uM, Timepoint 36 hours
[14] = Compound Concentration 0.5 uM, Timepoint 60 hours
[15] = Compound Concentration 2 uM, Timepoint 12 hours
[16] = Compound Concentration 2 uM, Timepoint 24 hours
[17] = Compound Concentration 2 uM, Timepoint 36 hours
[18] = Compound Concentration 2 uM, Timepoint 60 hours
[19] = Compound Concentration 10 uM, Timepoint 12 hours
[20] = Compound Concentration 10 uM, Timepoint 24 hours
[21] = Compound Concentration 10 uM, Timepoint 36 hours
[22] = Compound Concentration 10 uM, Timepoint 60 hours

SMILES	autophagy induction (TERT-RPE1; [3])	autophagy induction (TERT-RPE1; [4])	autophagy induction (TERT-RPE1; [5])	autophagy induction (TERT-RPE1; [6])	autophagy induction (TERT-RPE1; [7])	autophagy induction (TERT-RPE1; [8])	autophagy induction (TERT-RPE1; [9])	autophagy induction (TERT-RPE1; [10])	autophagy induction (U2OS [1]; [11])	autophagy induction (U2OS [1]; [12])	autophagy induction (U2OS [1]; [13])	autophagy induction (U2OS [1]; [14])	autophagy induction (U2OS [1]; [15])	autophagy induction (U2OS [1]; [16])	autophagy induction (U2OS [1]; [17])	autophagy induction (U2OS [1]; [18])	autophagy induction (U2OS [1]; [19])	autophagy induction (U2OS [1]; [20])	autophagy induction (U2OS [1]; [21])	autophagy induction (U2OS [1]; [22])	further results
FC(F)(F)c1cccc(-c2noc(-c3cc(-c4ccccc4)c(C(F)(F)F)s3)n2)c1	1.977% and -3.815%	1.344% and -4.458%	0.88% and -7.47%	-0.5412% and -7.068%	4.894% and -1.63%	2.202% and -4.099%	3.847% and -8.453%	-16.4913% and 2.616%	-1.1495%	-3.455%	-61.0771%	-1.369%	-1.566%	-3.4743%	-60.4788%	-1.735%	-17.6781%	-7.308%	-61.2616%	-2.196%	autophagy induction (TERT-RPE1; Compound Concentration 2 uM, Timepoint 12 hours, 12 h, 2 µM): 8.025% and -0.7273%; autophagy induction (TERT-RPE1; Compound Concentration 10 uM, Timepoint 24 hours, 24 h, 10 µM): -1.867% and 1.296%; autophagy induction (TERT-RPE1; Compound Concentration 10 uM, Timepoint 36 hours, 36 h, 10 µM): 1.745% and 2.594%; autophagy induction (U2OS [2]; [11]): 9.021%; autophagy induction (U2OS [2]; [12]): 3.382%; autophagy induction (U2OS [2]; [13]): -0.06707%; autophagy induction (U2OS [2]; [14]): -12.3398%; autophagy induction (U2OS [2]; [15]): 0.8817%; autophagy induction (U2OS [2]; [16]): -10.2337%; autophagy induction (U2OS [2]; [17]): -8.601%; autophagy induction (U2OS [2]; [18]): -22.9781%; autophagy induction (U2OS [2]; [19]): -28.6388%; autophagy induction (U2OS [2]; [20]): -12.6195%; autophagy induction (U2OS [2]; [21]): -3.849%; autophagy induction (U2OS [2]; [22]): -3.37%
CCCNS(=O)(=O)Nc1ncnc(OCCOc2ncc(Br)cn2)c1-c1ccc(Br)cc1	-0.7197% and -7.3982%	0.659% and -8.96%	-3.018% and -8.201%	-5.286% and -10.1731%	-0.7464% and 17.5664%	-1.802% and 12.9792%	-3.01% and 8.651%	-3.714% and 17.3261%	-3.964%	-4.032%	-61.3535%	-1.132%	-0.4685%	-1.227%	-59.7666%	-0.5161%	11.7925%	5.282%	-57.2377%	-0.5877%	autophagy induction (U2OS [2]; [11]): 2.901%; autophagy induction (U2OS [2]; [12]): -2.846%; autophagy induction (U2OS [2]; [13]): 0.07503%; autophagy induction (U2OS [2]; [14]): -9.912%; autophagy induction (U2OS [2]; [15]): 12.0444%; autophagy induction (U2OS [2]; [16]): 9.078%; autophagy induction (U2OS [2]; [17]): 7.396%; autophagy induction (U2OS [2]; [18]): -1.934%; autophagy induction (U2OS [2]; [19]): 26.4347%; autophagy induction (U2OS [2]; [20]): 18.1089%; autophagy induction (U2OS [2]; [21]): 17.8738%; autophagy induction (U2OS [2]; [22]): 1.732%

From ChEMBL document CHEMBL5724696, “Autophagy assay results for EUbOPEN Chemogenomics Library” (2024)
